Inhibition data for 35 compounds are collected here from patent publication US8575153B2 (Kowa Company, Ltd., priority 2008, dated 2013).

The structures appear in SMILES notation.

The test deals with Recombinant human JAK3 enzyme (JAK3 kinase region; Ala795-Ser1124) (Homo sapiens, UniProt P52333). Description: JAK3 Kinase Assay (Kinase-Glo luminescent, ATP consumption). The note with it: read-out: Inhibition rate (%) of JAK3 kinase activity. (Kinase-Glo reads ATP consumption through a luciferase reaction.)
Chain of Recombinant human JAK3 enzyme (JAK3 kinase region; Ala795-Ser1124) (P52333 795-1124): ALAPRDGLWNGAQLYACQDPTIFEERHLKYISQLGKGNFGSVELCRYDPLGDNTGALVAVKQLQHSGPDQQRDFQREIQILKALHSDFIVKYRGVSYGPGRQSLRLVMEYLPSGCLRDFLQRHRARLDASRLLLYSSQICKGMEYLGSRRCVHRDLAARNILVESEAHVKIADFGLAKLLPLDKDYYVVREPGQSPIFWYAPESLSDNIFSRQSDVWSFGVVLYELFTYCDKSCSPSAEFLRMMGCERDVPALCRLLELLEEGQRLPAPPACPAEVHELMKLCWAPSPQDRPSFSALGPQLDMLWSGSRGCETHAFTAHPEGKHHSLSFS
Procedure: Recombinant human JAK3 enzyme (JAK3 kinase region; Ala795-Ser1124) was purchased from Carna Biosciences, Inc.
The reaction was conducted in a kinase buffer (reaction volume: a total of 50 μl) containing 8 mM MOPS (pH 7.0), 0.2 mM EDTA, a test compound solution prepared to each concentration and 0.5 μg/ml JAK3 enzyme using a 96-well polystyrene plate (clear-bottom white-wall). […] After incubating them at room temperature for 2 hours, 50 μl of Kinase-Glo Luminescent Kinase Assay reagent (Promega) was added to each well, and further incubated at room temperature for 10 minutes. Using a chemiluminescence microplate reader MicroLumat LB96P (Berthold), chemiluminescence intensity was measured to quantitate the amount of ATP remaining after reaction. From the amount of ATP consumed in the phosphorylation reaction, the inhibition rate (%) of JAK3 kinase activity was determined.
Consider `NC(=O)c1cnc(Nc2ccc(N3CCOCC3)cc2)cc1NCc1cc(F)cc(F)c1` [Example 91, 4-[(3,5-difluorobenzyl)amino]-6-[(4-morpholinophenyl)amino]pyridine-3-carboxyamide], for which the inhibition at 0.1 µM is 92%.
Take `CC(C)S(=O)(=O)N1CCN(c2ccc(Nc3cc(NCc4c(F)cccc4F)c(C(N)=O)cn3)cc2)CC1` [Example 172, 4-[(2,6-difluorobenzyl)amino]-6-({4-[4-(propan-2-ylsulfonyl)piperazin-1-yl]phenyl}amino) pyridine-3-carboxyamide]: the inhibition at 0.1 µM was determined as 59%.
Same read-out and setting: under `CC(C)N1CCN(c2ccc(Nc3cc(NCc4cc(F)cc(F)c4)c(C(N)=O)cn3)cc2)CC1` [Example 151, 4-[(3,5-difluorobenzyl)amino]-6-({4-[4-(propan-2-yl)piperazin-1-yl]phenyl}amino)pyridine-3-carboxyamide] stands 69%.
`N#CCC(=O)N1CCN(c2cccc(Nc3cc(NCc4cc(F)cc(F)c4)c(C(N)=O)cn3)c2)CC1` [Example 267, 6-({3-[4-(cyanoacetyl)piperazin-1-yl]phenyl}amino)-4-[(3,5-difluorodibenzyl)amino]pyridine-3-carboxyamide]: the inhibition at 0.1 µM is 72%.
The same measure, in the same setting: under `NC(=O)c1cnc(Nc2ccc(N3CCOCC3)cc2)cc1NCc1cccc([N+](=O)[O-])c1` [Example 102, 6-[(4-morpholinophenyl)amino]-4-[(3-nitrobenzyl)amino]pyridine-3-carboxyamide] stands 53%; under `NC(=O)c1cnc(Nc2cccc(N3CCNCC3)c2)cc1NCc1cc(F)cc(F)c1` [Example 225, 4-[(3,5-difluorobenzyl)amino]-6-{[3-(piperazin-1-yl)phenyl]amino}pyridine-3-carboxyamide], 74%; under `N#CCCN1CCN(c2ccc(Nc3cc(NCc4ccccc4)c(C(N)=O)cn3)cc2)CC1` [Example 241], 70%.
As to `CC(C)S(=O)(=O)Nc1ccc(Nc2cc(NCc3ccccc3)c(C(N)=O)cn2)cc1` [Example 163, 4-(benzylamino)-6-({4-[(propan-2-ylsulfonyl)amino]phenyl}amino)pyridine-3-carboxyamide], the inhibition at 0.1 µM was 77%.
With `NC(=O)c1cnc(Nc2ccc(N3CCOCC3)cc2)cc1NCc1cc(F)ccc1F` [Example 93, 4-[(2,5-difluorobenzyl)amino]-6-[(4-morpholinophenyl)amino]pyridine-3-carboxyamide], the inhibition at 0.1 µM was found to be 86%.
On the same count and under the same terms, under `CCN(CC)CCN1CCN(c2cccc(Nc3cc(NCc4cc(F)cc(F)c4)c(C(N)=O)cn3)c2)CC1` [Example 239, 6-[(3-{4-[2-(diethylamino)ethyl]piperazin-1-yl}phenyl)amino]-4-[(3,5-difluorobenzyl)amino]pyridine-3-carboxyamide] stands 57%; under `NC(=O)c1cnc(Nc2ccc(N3CCOCC3)cc2)cc1NCc1ccccc1Cl` [Example 80, 4-[(2-chlorobenzyl)amino]-6-[(4-morpholinophenyl)amino]pyridine-3-carboxyamide], 79%.
Regarding `CCN(CC)C(=O)N1CCN(c2ccc(Nc3cc(NCc4ccccc4)c(C(N)=O)cn3)cc2)CC1` [Example 282, 4-(benzylamino)-6-({4-[(4-diethylcarbamoyl)piperazin-1-yl]phenyl}amino)pyridine-3-carboxyamide], the inhibition at 0.1 µM came to 89%.
For `CC(C)NC(=O)N1CCN(c2ccc(Nc3cc(NCc4ccccc4)c(C(N)=O)cn3)cc2)CC1` [Example 283], the inhibition at 0.1 µM is 79%.
`NC(=O)c1cnc(Nc2ccc(N3CCOCC3)cc2)cc1NCc1cccc(Cl)c1` [Example 81, 4-[(3-chlorobenzyl)amino]-6-[(4-morpholinophenyl)amino]pyridine-3-carboxyamide]: the inhibition at 0.1 µM was 72%.
For `COc1ccccc1CNc1cc(Nc2ccc(N3CCN(C(C)C)CC3)cc2)ncc1C(N)=O` [Example 147, 4-[(2-methoxybenzyl)amino]-6-({4-[4-(propan-2-yl)piperazin-1-yl]phenyl}amino)pyridine-3-carboxyamide], the inhibition at 0.1 µM was found to be 58%.
Turning to `NC(=O)c1cnc(Nc2ccc(NCCO)cc2)cc1NCc1cc(F)cc(F)c1` [Example 234, 4-[(3,5-difluorobenzyl)amino]-6-({4-[(2-hydroxyethyl)amino]phenyl}amino)pyridine-3-carboxyamide], the inhibition at 0.1 µM was 72%.
For `N#CCC(=O)N1CCN(c2ccc(Nc3cc(NCc4ccccc4)c(C(N)=O)cn3)cc2)CC1` [Example 262, 4-(benzylamino)-6-({4-[4-(cyanoacetyl)piperazin-1-yl]phenyl}amino)pyridine-3-carboxyamide], the inhibition at 0.1 µM was 78%.
On to `COCCNS(=O)(=O)c1ccc(Nc2cc(NCc3cc(F)cc(F)c3)c(C(N)=O)cn2)cc1` [Example 330, 4-[(3,5-difluorobenzyl)amino]-6-({4-[(2-methoxyethyl)sulfamoyl]phenyl}amino)pyridine-3-carboxyamide], for which the inhibition at 0.1 µM amounted to 59%.
As for `NC(=O)c1cnc(Nc2ccc(N3CCOCC3)cc2)cc1NCC1CCCCC1` [Example 361, 4-[(cyclohexylmethyl)amino]-6-[(4-morpholinophenyl)amino]pyridine-3-carboxyamide], the inhibition at 1 µM came to 83%.
As for `NC(=O)c1cnc(Nc2ccc(N3CCNCC3)cc2)cc1NCc1cccnc1` [Example 355, 6-{(4-(piperazin-1-yl)phenyl]amino}-4-[(pyridin-3-ylmethyl)amino}pyridine-3-carboxyamide], the inhibition at 1 µM turned out to be 92%.
With `NC(=O)c1cnc(Nc2ccc(N3CCOCC3)cc2)cc1NCc1cc(F)cc(C(F)(F)F)c1` [Example 96, 6-[(4-morpholinophenyl)amino]-4-{[3-fluoro-5-(trifluoromethyl)benzyl]amino}pyridine-3-carboxyamide], the inhibition at 0.1 µM was 74%.
Take `NC(=O)c1cnc(Nc2ccc(C(=O)O)cc2)cc1NCc1cc(F)cc(F)c1` [Example 332, 6-[(4-carboxyphenyl)amino]-4-[(3,5-difluorobenzyl)amino]pyridine-3-carboxyamide]: the inhibition at 0.1 µM was found to be 69%.
Same read-out and setting: under `NC(=O)c1cnc(Nc2ccc(N3CCOCC3)cc2)cc1NCc1ccccc1` [Example 72, 4-(benzylamino)-6-{(4-morpholinophenyl)amino]pyridine-3-carboxyamide] stands 65%.
For the compound `CCN(CC)CC(=O)N1CCN(c2ccc(Nc3cc(NCc4cccc(F)c4F)c(C(N)=O)cn3)cc2)CC1` [Example 205, 6-({4-[4-(N,N-diethylglycyl)piperazin-1-yl]phenyl}amino}-4-[(2,3-difluorobenzyl)amino]pyridine-3-carboxyamide], the inhibition at 0.1 µM was found to be 98%.
`CS(=O)(=O)Nc1ccc(Nc2cc(NCc3cccc([N+](=O)[O-])c3)c(C(N)=O)cn2)cc1` [Example 160, 4-[(3-nitrobenzyl)amino]-6-({4-[(methylsulfonyl)amino]phenyl}amino)pyridine-3-carboxyamide]: the inhibition at 0.1 µM stood at 66%.
The same measure, in the same setting: under `N#CCC(=O)N1CCN(c2ccc(Nc3cc(NCc4c(F)cccc4F)c(C(N)=O)cn3)cc2)CC1` [Example 266, 6-({4-[4-(cyanoacetyl)piperazin-1-yl]phenyl}amino)-4-[(2,6-difluorobenzyl)amino]pyridine-3-carboxyamide] stands 77%; under `CCN(CC)CCS(=O)(=O)Nc1ccc(Nc2cc(NCc3cc(F)cc(F)c3)c(C(N)=O)cn2)cc1` [Example 304, 6-{[4-({[2-(diethylamino)ethyl]sulfonyl}amino)phenyl]amino}-4-[(3,5-difluorobenzyl)amino]pyridine-3-carboxyamide], 78%; under `CC(C)N1CCN(c2ccc(Nc3cc(NCc4cccc(F)c4F)c(C(N)=O)cn3)cc2)CC1` [Example 150, 4-[(2,3-difluorobenzyl)amino]-6-({4-[4-(propan-2-yl)piperazin-1-yl]phenyl}amino)pyridine-3-carboxyamide], 66%.
Still for that read-out and setting: the figure for `CCN(CC)C(=O)N1CCC(Nc2ccc(Nc3cc(NCc4ccccc4)c(C(N)=O)cn3)cc2)CC1` [Example 290, 4-(benzylamino)-6-[(4-{[1-(diethylcarbamoyl)piperidin-4-yl]amino}phenyl)amino]pyridine-3-carboxyamide] is 71%; for `N#CCC(=O)N1CCN(c2ccc(Nc3cc(NCc4cccc(F)c4F)c(C(N)=O)cn3)cc2)CC1` [Example 263, 6-({4-[4-(cyanoacetyl)piperazin-1-yl]phenyl}amino)-4-[(2,3-difluorobenzyl)amino]pyridine-3-carboxyamide] it is 98%; for `NC(=O)c1cnc(Nc2ccc(S(N)(=O)=O)cc2)cc1NCc1cc(F)cc(F)c1` [Example 328, 4-[(3,5-difluorobenzyl)amino]-6-[(4-sulfamoylphenyl)amino]pyridine-3-carboxyamide] it is 70%.
On to `NC(=O)c1cnc(Nc2ccc(N3CCNCC3)cc2)cc1NCc1cc(F)ccc1F` [Example 222, 4-[(2,5-difluorobenzyl)amino]-6-{[4-(piperazin-1-yl)phenyl]amino}pyridine-3-carboxyamide], for which the inhibition at 0.1 µM turned out to be 78%.
For `CN1CCCC1CNc1cc(Nc2ccc(N3CCOCC3)cc2)ncc1C(N)=O` (centres unmarked) [Example 359, 4-{[(1-methylpyrrolidin-2-yl)methyl]amino}-6-[(4-morpholinophenyl)amino]pyridine-3-carboxyamide], the inhibition at 1 µM turned out to be 61%.
Turning to `NC(=O)c1cnc(Nc2ccc(N3CCOCC3)cc2)cc1NCc1cccc(F)c1F` [Example 90, 4-[(2,3-difluorobenzyl)amino]-6-[(4-morpholinophenyl)amino]pyridine-3-carboxyamide], the inhibition at 0.1 µM worked out at 77%.
The same measure, in the same setting: under `NC(=O)c1cnc(Nc2ccc(N3CCC(O)CC3)cc2)cc1NCc1cccc(F)c1F` [Example 187, 4-[(2,3-difluorobenzyl)amino]-6-{[4-(4-hydroxypiperidino)phenyl]amino}pyridine-3-carboxyamide] stands 85%.

What is called inhibition is the percentage by which the read-out fell short of the control.
